Experimental data published in PMC10401651, “Characterization of Uranyl (UO2^2+) Ion Binding to Amyloid Beta (Aβ) Peptides: Effects on Aβ Structure and Aggregation” (ACS Chemical Neuroscience, 2023).

Key:
Aβ42 oligomers = target: T1, Aβ42 oligomers (Homo sapiens, UniProt P05067); assay: FTIR spectroscopy of SDS-stabilized Aβ42 oligomer structure
T1 construct: Synthetic lyophilized wt Aβ (1–42) peptides, abbreviated as Aβ42; purchased JPT Peptide Technologies (Germany); host or cells: synthetic peptide
Method: The secondary structures of Aβ42 oligomers formed with different SDS and uranyl concentrations were studied with FTIR spectroscopy, where the amide I region (1700–1600 cm^–1) is very sensitive to changes in the protein backbone conformation, including differences in β-sheet structures.[133]−[135] […] This split pattern of IR bands in the amide I region is typical for anti-parallel β-sheet structures.[136]−[138]
Treatment of Aβ42 peptides with low concentrations (≤7 mM) of SDS, i.e., below the critical micelle concentration for SDS, which is 8.2 mM in water at 25 °C,[152] leads to the formation of stable and homogeneous Aβ42 oligomers of certain sizes and conformations.[131],[132],[153] […] The absorbance for each fraction at 280 nm was measured with a NanoDrop instrument (Eppendorf, Germany), and peptide concentrations were determined using a molar extinction coefficient of 1280 M^–1 cm^–1 for the single Tyr in Aβ42.[155] […]
FTIR spectra of the SDS-stabilized Aβ42 oligomers (prepared as described in Section 5.2) were recorded in transmission mode on a Tensor 37 FTIR spectrometer (Bruker Optics, Germany) equipped with a sample shutter and a liquid nitrogen-cooled MCT detector. […] FTIR spectra were recorded at room temperature in the 1900–800 cm^–1 range, with 300 scans for both background and sample spectra, using a 6 mm aperture and at a resolution of 2 cm^–1. […]

Aβ40 peptides = target: T2, Aβ40 peptides (Homo sapiens, UniProt P05067); assay: ThT fluorescence measurements of Aβ40 aggregation kinetics; type: biochemical; conditions: for t1/2 (aggregation halftime): 15 h; for ΔThT (increase in ThT fluorescence): 20 μM Aβ40, pH 7.3, 37 °C, end of 15 h
T2 construct: namely, the Aβ40 peptide; purchased AlexoTech AB (Umeå, Sweden); host or cells: recombinant
Method: Fitting eq 1 to the ThT fluorescence curves in Figure 1 produced the kinetic parameters Tlag and t1/2 (Table 1). […] The two samples with 0 and 0.04 μM uranyl both have aggregation half-times of around 3 h and lag times of around 2 h under the experimental conditions (Table 1). The aggregation of the 0.2 μM uranyl sample is clearly slower, with a half-time of almost 7 h and a lag time of around 5 h.
Thioflavin T is a benzothiazole dye that increases in fluorescence upon binding to amyloid aggregates[116] and is therefore used to monitor the formation of amyloid aggregates. The ThT dye was excited at 440 nm, and ThT fluorescence emission at 480 nm was measured every 5 min. Before each measurement, the plate was shaken in orbital mode for 140 s at 200 rpm. The samples were incubated for a total of 15 h, and the assay was repeated three times with four replicates of each condition. To determine kinetic aggregation parameters, the data was fitted to eq 1: [drawing 1] 1 Here, F0 and F∞ are the intercepts of the initial and final fluorescence intensity baselines, m0 and m∞ are the slopes of the initial and final baselines, t1/2 is the time needed to reach halfway through the elongation phase (i.e., aggregation half-time), and τ is the elongation time constant.[116]

[1] = 0.04 μM uranyl acetate, 20 μM Aβ40, 20 mM MES pH 7.3, 37 °C
[2] = 0.2 μM uranyl acetate, 20 μM Aβ40, 20 mM MES pH 7.3, 37 °C
[3] = 0.2 μM uranyl acetate, 20 μM Aβ40, 20 mM MES pH 7.3, 37 °C, listed as uranyl

T2 sequence (P05067 672-711 limits assumed): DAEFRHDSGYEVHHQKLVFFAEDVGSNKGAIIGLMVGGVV
T1 sequence (P05067 672-713 limits assumed): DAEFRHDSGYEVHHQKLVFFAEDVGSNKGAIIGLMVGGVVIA

## CC(=O)[O-].CC(=O)[O-].[O]=[U+2]=[O] [uranyl ions, uranyl acetate]
Aβ42 oligomers; AβO0.05%SDS oligomers in PBS, 1 mM uranyl acetate (1628.3 without)
  β-sheet main band position (amide I, FTIR): 1627.8 cm^–1
Aβ42 oligomers; AβO0.2%SDS oligomers, 0.01, 0.1, and 1 mM uranyl acetate (1629.9 without)
  β-sheet main band position (amide I, FTIR): 1629.8 cm^–1
Aβ40 peptides; [1]
  Tlag (lag time): 2.0 ± 1.1 h
  t1/2 (aggregation halftime): around 3 h
Aβ40 peptides; 0.04 μM uranyl acetate, 20 μM Aβ40, 20 mM MES pH 7.3, 37 °C, listed as uranyl
  Tlag (lag time): around 2 h
Aβ40 peptides; 0.04 μM uranyl acetate
  ΔThT (increase in ThT fluorescence): 1286 a.u.
Aβ40 peptides; [2]
  Tlag (lag time): 5.2 ± 0.9 h
  t1/2 (aggregation halftime): 6.7 ± 1.4 h
Aβ40 peptides; [3]
  t1/2 (aggregation halftime): ~7 h
  Tlag (lag time): around 5 h
Aβ40 peptides; 0.2 μM uranyl acetate
  ΔThT (increase in ThT fluorescence): 958 a.u.
Aβ40 peptides; 0.4 μM uranyl acetate
  ΔThT (increase in ThT fluorescence): 101 a.u.
Aβ40 peptides; 0.4 μM uranyl, 20 μM Aβ40, 20 mM MES pH 7.3, 37 °C
  lag time, visually estimated: approximately 9 h
Aβ40 peptides; 2 μM uranyl acetate
  ΔThT (increase in ThT fluorescence): 0 a.u.
Aβ40 peptides; 20 μM uranyl acetate
  ΔThT (increase in ThT fluorescence): 0 a.u.
Aβ40 peptides; 2 and 20 μM uranyl, 20 μM Aβ40, 15 h
  Aβ40 aggregation seen in ThT curves: no obvious signs of aggregation after 15 h
